The subject of one experiment is Aβ42. Briefly: Aβ42 content in culture supernatant of HEK293APP/sw overexpression cells (ELISA, adjusted to total protein). The settings on record: secreted by APP/293 (HEK293APP/sw) cells; 400 μM, treated for 24 h; blank control 11.08. The class given is cell-based. As to the method:
(§1) (1) BCA protein concentration assay kit is purchased from Beyotime, Aβ40 and AB42 test kits are purchased from Wako Company. Except the fetal bovine serum (FBS) is purchased from Shanghai Pulong Biotechnology Research and Development Co. Ltd., the other related reagents are purchased from Gibico Company.
(§2) (2) HEK293APP/sw overexpression cell culture: cells are cultured in 48 microwell plate with DMEM culture solution (including 10% FBS, 100 μg/mL G418 (Geneticin) and penicillin and streptomycin), and a 4 mM stock in DMEM is diluted with DMEM to 400 μM and added to cell culture medium by 500 μL/well at 70% cell density and treated for 24 h.
(§3) (3) After the supernatant of culture solution is added to the BCA reagent at room temperature for 30 minutes, the absorption value of each well is measured at the OD 570 nm by the microplate reader and the total protein concentration is calculated according to the protein standard curve. Meanwhile, the concentration of Aβ40 and Aβ42 in the supernatant of culture solution is measured. Briefly, the supernatant is added to the 96 microwell plate coated by primary antibodies and incubated at 4° C. for overnight. Then the solution in the 96 microwell plate is removed and washed, and HRP (horseradish oxide enzyme) marked antibody is added to the solution and incubated at 4° C. for 2 hours. The antibody is removed and the plate is washed. After TMB substrate is added to each well at room temperature for 30 minutes, and the stop buffer is added to each well. The absorption value of each well is measured at the OD 450 nm by the microplate reader and the concentrations of Aβ40 and Aβ42 are calculated according to the standard curves of Aβ40 and Aβ42 respectively, and the final concentration is obtained by adjusting the concentrations of Aβ40 and Aβ42 according to the total protein concentration.

The next experiment deals with Aβ40. Briefly: Aβ40 content in culture supernatant of HEK293APP/sw overexpression cells (ELISA, adjusted to total protein). The experiment is classed as cell-based. Conditions: secreted by APP/293 (HEK293APP/sw) cells; 400 μM, treated for 24 h; blank control 127.81. Here is the method: as §1, §2, §3

“(Z)-S-(2-(N-((4-amino-2-methylpyrimidin-5-yl)methyl)formamido)-5-(phosphonooxy)pent-2-en-3-yl)2-iodobenzothioate [Example 19]” came in with an Aβ42 content in the experiment with Aβ42 of 5.50 pmol/L. This substance yielded an Aβ40 content with Aβ40 of 62.74 pmol/L.

The record behind these values is patent US11820787B2, “Benfotiamine derivatives in the treatment of alzheimer's disease” (SHANGHAI RAISING PHARMACEUTICAL CO., LTD., priority 2019, dated 2023).
